From patent US20230202997A1, “CHROMANOL, QUINONE OR HYDROQUINONE COMPOUNDS FOR TREATMENT OF SEPSIS” (Sulfateq B.V., priority 2020, published 2023)

What was measured:
TNFα mRNA expression [1] = test: Inhibition of LPS-induced TNFα mRNA expression in HUVEC; type: cell-based, Human; settings: 10 μM for 30 min, then LPS 24 hours
Method: (§1) Human Umbilical Cord Endothelial Cells (HUVEC, Lonza CC-2519) were maintained on 1% gelatin-coated culture flasks in RPMI1640 medium containing 20% fetal bovine serum, 2 mM Glutamine (Sigma-Aldrich), 1% Penicillin-Streptomycin solution (Sigma-Aldrich) and 50 μg/ml Bovine Pituitary Extract (Invitrogen). HUVEC were passaged by trypsinization when the cultures reach a confluency of 70%. For all experiments, HUVEC were seeded at 0.6·10^5 cells/cm^2 and allowed to adhere for 24 hours.
(§2) HUVEC and NRK52E cells were pre-incubated with SUL compounds (10 μM) for 30 min and subsequently exposed to LPS for 24 hours under standard culture conditions. Cells were lysed in triZOL reagens (Invitrogen) and total RNA isolated according to manufacturers' instruction. 1 μg total RNA per sample was reverse transcribed using the FirstAid Reverse Transcription Kit (ThermoFisher). Copy-DNA equivalents of 5 ng total RNA were amplified on a ViiA7 Real-time PCR system (ThermoFisher, Waltham, Mass.) using iTaq Universal SYBR Green Supermix (Bio-Rad, Hercules, Calif.) and primers specific for tumor necrosis factor alpha, interleukin 1 beta, interleukin-6 and beta actin as loading control. Amplification was performed for 40 cycles of 95° C. for 30 s, 60° C. for 1 min. Relative mRNA expression was calculated as 2^−(Cq^gene^−Cq^reference^) and normalized to unstimulated control cells (100% inhibition) and vehicle-treated and LPS exposed cells (0% inhibition). The following primers were used: […]

IL-1β mRNA expression [2] = test: Inhibition of LPS-induced IL-1β mRNA expression in HUVEC; type: cell-based, Human; settings: 10 μM for 30 min, then LPS 24 hours
Method: as §1, §2

IL-6 mRNA expression [3] = test: Inhibition of LPS-induced IL-6 mRNA expression in HUVEC; type: cell-based, Human; settings: 10 μM for 30 min, then LPS 24 hours
Method: as §1, §2

NO production in HUVEC = test: Endothelial NO production (nitrate in conditioned medium), basal and after LPS; type: cell-based, Human; settings: 10 μM pre-treatment, LPS 100 ng/ml for 24 hours
Method: as §1
Cellular production of NO was approximated by measuring nitrate concentrations in culture media using the Measure-IT™ High-Sensitivity Nitrite Assay Kit (#M36051, ThermoFisher) according to manufacturer's instructions. […] Therefore, nitrate concentrations in conditioned media are a good approximate to assess cellular NO production. 50 μl conditioned medium derived from a single 96-wells plate well was used per assay and normalized against protein concentration. All experiments were performed in quadruplicate.
Endotoxins suppress endothelial NO production by limiting the activity of eNOS. HUVEC were pre-treated with vehicle (DMSO), BN-80933, SUL-138, or SUL-150 or (all 10 μM) prior to endotoxin (LPS 100 ng/ml) exposure for 24 hours. The nitrate levels in the conditioned medium from endothelial cells exposed to LPS averaged at 160 pmol/mg protein (˜33% reduction versus non LPS exposed HUVEC, p=0.002), which was lower than basal control levels. BN-80933 further suppressed the nitrate levels in the conditioned medium (FIG. 7A) to an average of 90 pmol/mg protein (p=0.008).

[4] = system: NO production in RAW264.7 macrophages; test: Macrophage NO production (nitrate in conditioned medium), basal and after LPS; type: cell-based, Mouse
Method: Mouse macrophage RAW264.7 cells (ATCC #TIB-71) were maintained in DMEM medium containing 10% fetal bovine serum, and 1% Penicillin-Streptomycin solution (Sigma-Aldrich). […] For all experiments, RAW264.7 cells were seeded at 0.5·10^5 cells/cm^2 and allowed to adhere for 24 hours. Cellular production of NO was approximated by measuring nitrate concentrations in culture media using the Measure-IT™ High-Sensitivity Nitrite Assay Kit (#M36051, ThermoFisher) according to manufacturer's instructions. […] Therefore, nitrate concentrations in conditioned media are a good approximate to assess cellular NO production. 50 μl conditioned medium derived from a single 96-wells plate well was used per assay and normalized against protein concentration. All experiments were performed in quadruplicate. LPS induces macrophage NO production by activating iNOS. RAW264.7 macrophages were pre-treated with vehicle (DMSO), BN-80933, SUL-138, or SUL-150 or (all 10 μM) prior to endotoxin (LPS 100 ng/ml) exposure for 24 hours. The nitrate levels in the conditioned medium from LPS exposed RAW264.7 macrophages averaged at 83 pmol/mg protein (˜16-fold increase versus non-exposed RAW264.7 cells, p=0.001).

[5] = system: cytoplasmic oxidative stress in HUVEC; test: LPS-induced cellular superoxide in HUVEC (DHE); type: cell-based, Human; settings: 10 μM for 30 min, LPS 100 ng/ml 24 hours
Method: as §1
(§3) The production of cellular and mitochondrial oxidative stress was measured using fluorescent probes for cellular and mitochondrial superoxide, i.e. dihydroethidium (DHE) and MitoSox (ThermoFisher), respectively. HUVEC were incubated with BN-80933, SUL-138 or SUL-150 (all 10 μM) for 30 min. Next, HUVEC were exposed to LPS (100 ng/ml) for an additional 24 hours. In the final hour of incubation, 2.5 μM of DHE or MitoSox was applied to each sample. HUVEC were washed in PBS and fixed in 4% paraformaldehyde at room temperature for 15 min. Nuclear staining was performed by 5 μM […] (DAPI) and fluorescence intensity of the samples was recorded in a CLARIOStar Plus plate reader (BMG Labtech) equipped with the appropriate filter sets. Fluorescence recordings for DHE and MitoSox were corrected for DAPI fluorescence. All experiments were performed in quadruplicate.

[6] = system: mitochondrial oxidative stress in HUVEC; test: LPS-induced mitochondrial superoxide in HUVEC (MitoSox); type: cell-based, Human; settings: 10 μM for 30 min, LPS 100 ng/ml 24 hours
Method: as §1, §3

TNFα mRNA expression [7] = test: Endothelial inflammatory activation after endotoxin, TNFα mRNA (Example 5); type: cell-based, Human; settings: HUVEC; 10 μM for 30 min
Method: as §1
(§4) HUVEC cells were lysed in triZOL reagens (Invitrogen) and total RNA isolated according to manufacturers' instruction. 1 μg total RNA per sample was reverse transcribed using the FirstAid Reverse Transcription Kit (ThermoFisher). Copy-DNA equivalents of 5 ng total RNA were amplified on a ViiA7 Real-time PCR system (ThermoFisher, Waltham, Mass.) using iTaq Universal SYBR Green Supermix (Bio-Rad, Hercules, Calif.) and primers specific for tumor necrosis factor alpha (TNFα; sense 5′-[…]-3′, antisense 5′-[…]-3′), interleukin 1 beta (IL-1β; sense 5′-[…]-3′, antisense 5′-[…]-3′), interleukin-6 (IL-6; sense 5′-[…]-3′, antisense 5′-[…]-3′) and beta actin (ACTB; sense 5′-[…]-3′, antisense 5′-[…]-3′) as loading control. Amplification was performed for 40 cycles of 95° C. for 30 s, 60° C. for 1 min. Relative mRNA expression was calculated according to the δδCt-method.

IL-1β mRNA expression [8] = test: Endothelial inflammatory activation after endotoxin, IL-1β mRNA (Example 5); type: cell-based, Human; settings: HUVEC; 10 μM for 30 min
Method: as §1, §4

IL-6 mRNA expression [9] = test: Endothelial inflammatory activation after endotoxin, IL-6 mRNA (Example 5); type: cell-based, Human; settings: HUVEC; 10 μM for 30 min
Method: as §1, §4

HUVEC = test: Cell viability after hypothermia-rewarming stress (Neutral Red); type: cell-based, Human; settings: 10 μM for 1 hour, 4° C. for 24 hours followed by 37° C. for 3 hours
Method: as §1
HUVEC were pre-treated with BN-80933, SUL-138 or SUL-150 (all 10 μM) for 1 hour in a humidified incubator at 37° C. Following pre-treatment, HUVEC were placed in a cold room (2-8° C.) for 24 hours and subsequently placed back at 37° C. for a 3 hour rewarming period. After 1 hour of rewarming, cell culture medium was replaced by prewarmed and filtered 0.4 mg/mL Neutral Red (#N463 8, Sigma-Aldrich) in culture medium. After the remaining 2 hour rewarming period, HUVEC were washed with PBS and NRU was solubilized in 100 μL resorption solution (50% ethanol, 1% ascetic acid in dH2O). The absorbance was measured at a wavelength of 550 nm on a BioTek ELx808 plate reader. The recorded OD550 nm values were normalized to control samples that were maintained at 37° C. at all times, which were assumed to be 100% viable.

[10] = system: sepsis induction in Drosophila melanogaster (Staphylococcus aureus); test: S. aureus sepsis in flies, survival and negative geotaxis; type: in vivo; settings: flies with S. aureus sepsis
Method: W1118 flies were bred and housed at 25° C. with a 12 h:12 h light/dark-cycle. Flies were kept in vials containing approximately 5 mL of standard yeast-cornmeal medium. Flies kept as a stock were flipped to fresh vials weekly. The used yeast-cornmeal medium was prepared to the instructions of Stocker and Gallant's ‘Drosophila Methods and Protocols’ and consisted of 100 grams yeast, 75 grams glucose, 8 grams agar, 55 grams cornmeal, and 10 grams wheat flour per litre of water. After boiling, phosphoric acid and propionic acid were added to the mixture to prevent fungal growth.
Staphylococcus aureus (S. aureus) was aerobically cultured overnight in 2.5% tryptic soy broth (TSB) at 37° C. with continuous rotation (200 rounds per minute), from an S. aureus glycerol stock kept at −80° C. For each experiment, a fresh culture was prepared one day prior to the experiment. For bacterial infection, optical density (OD) was measured the following day at 600 nm. Clean TSB was used as OD=0.00 and the bacterial culture was diluted to OD=2.20 with PBS. Next, 1.0 mL of the bacterial culture (OD=2.20) was centrifuged at 14,000 g for 1 minute, the supernatant was discarded, and the bacterial pellet resuspended in 1.0 mL PBS. Serial dilutions (5× and 25× diluted in PBS with optical densities of approximately 1.05 and 0.25, respectively) were used in the appropriate experiments. […]

TNFα mRNA expression [11] = test: Inhibition of LPS-induced TNFα mRNA expression in NRK52E; type: cell-based, Rat; settings: 10 μM for 30 min, then LPS 24 hours
Method: (§5) Rat kidney epithelial cells (ATCC #CRL-1571) were maintained in DMEM medium containing 10% fetal bovine serum, and 1% Penicillin-Streptomycin solution (Sigma-Aldrich). NRK52E cells were passaged by trypsinization when the cultures reached a confluency of 70%. For all experiments, NRK52E cells were seeded at 0.6·10^5 cells/cm^2 and allowed to adhere for 24 hours.
as §2

IL-6 mRNA expression [12] = test: Inhibition of LPS-induced IL-6 mRNA expression in NRK52E; type: cell-based, Rat; settings: 10 μM for 30 min, then LPS 24 hours
Method: as §5, §2

Structure (SMILES) | inhibition of LPS-induced mRNA expression of TNFα (TNFα mRNA expression [1]) [%] | inhibition of LPS-induced mRNA expression of IL-1β (IL-1β mRNA expression [2]) [%] | inhibition of LPS-induced mRNA expression of IL-6 (IL-6 mRNA expression [3]) [%] | nitrate levels in the conditioned medium after LPS (NO production in HUVEC) | LPS-induced increase in extracellular nitrate level ([4]; 10 μM pre-treatment, LPS 100 ng/ml for 24 hours) | basal production of extracellular nitrate ([4]; no LPS, 10 μM) | LPS-induced cytoplasmic oxidative stress (DHE) [5] | LPS-induced mitochondrial oxidative stress (MitoSox) [6] | LPS-induced mRNA expression of TNFα (TNFα mRNA expression [7]) | LPS-induced mRNA expression of IL-1β (IL-1β mRNA expression [8]) | LPS-induced mRNA expression of IL-6 (IL-6 mRNA expression [9]) | reduction in cell viability versus normothermic control cells (HUVEC) [%] | Geotaxis ([10]; 3 mM SUL-151, 24 hr and 48 hr after induction) | Survival after 24 hr ([10]; 3 mM SUL-151 intrathoracic injection with the bacteria) [%] | inhibition of LPS-induced mRNA expression of TNFα (TNFα mRNA expression [11]) [%] | inhibition of LPS-induced mRNA expression of IL-6 (IL-6 mRNA expression [12]) [%]
Cc1c(C)c2c(c(C)c1O)CC[C@](C)(C(=O)N1CCNCC1)O2 [SUL-150, (R)-(6-hydroxy-2,5,7,8-tetramethylchroman-2-yl)(piperazin-1-yl)methanone] | 79.8 ± 4.1 | 78.9 ± 6.0 | 69.3 ± 3.9 | mitigated the LPS-induced reduction in nitrate levels and their levels did not change from basal nitrate level | Neither SUL-138 nor SUL-150 strongly suppressed the LPS-induced increase in nitrate production | Neither BN-80933, SUL-138, nor SUL-150 affected the basal production of extracellular nitrate | mitigates the induction of cytoplasmic oxidative stress | precluded the LPS-induced increase in mitochondrial oxidative stress | precludes the induction of mRNA expression of the pro-inflammatory cytokine TNFα | precluded the LPS-induced increase in IL-1β and IL-6 | precluded the LPS-induced increase in IL-1β and IL-6 | ~15 |  |  |  | 
Cc1c(C)c2c(c(C)c1O)CC[C@@](C)(C(=O)N1CCNCC1)O2 [SUL-151, (S)-(6-hydroxy-2,5,7,8-tetramethylchroman-2-yl)(piperazin-1-yl)methanone] | 72.5 ± 3.2 | 76.7 ± 1.2 | 65.4 ± 4.6 |  |  |  |  |  |  |  |  |  | improved both at 24 hr and 48 hr | 80 | 72.1 ± 14.5 | 83.1 ± 8.3
